“Also recorded” adds a separate entry of the source. Counter-ions that a name gives are not always drawn.
Assays:
[1] = biological target: L1 reverse transcriptase (Homo sapiens, UniProt O00370); settings: Dai et al., BMC Biochemistry 2011, 12:18; cited from earlier work
[2] = system: MeCP2-KO mice; assay: Neurological symptom scoring in MeCP2-KO mice; type: in vivo; settings: 2 mg/ml in drinking water starting at week 4, observed up to 10 weeks, vs vehicle
Method: Treatment with reverse transcription inhibitors was performed as follows.
(§1) MeCP2-KO mice (C57BL/6 background) were obtained from Mutant Mouse Resource & Research Centers (MMRRC) (Chen, RZ, Akbarian S, Tudor M and Jaenisch R. Nat Genet 27, 327-331 (2001)). All aspects of animal care and treatment were carried out according to the guidelines of the Experimental Animal Care Committee of Kyushu University.
Mice were maintained in a 12-hour light/dark cycle with free access to food and water. MeCP2-KO mice were divided into three groups of animals, each of which was administered with 3TC (QA-4615, Combi-blocks), d4T (d3580, Tokyo Chemical Industry Co., Ltd.) and vehicle. […]
Neurological symptoms of the mice were scored as described in Guy J, Gan J, Selfridge J, Cobb S and Bird A. Science 315, 1143-1147 (2007). In brief, the mice bred as described above were scored blind to genotype and treatment status, focusing on the six symptoms of mobility, gait, hindlimb clasping, tremor, breathing, and general condition. Each of the six symptoms was scored from 0 to 2:0 corresponds to symptom's being absent or the same as in the wild-type, 1 corresponds to symptom's being present, and 2 corresponds to severe symptom.
Six neurological symptoms scored in each of the three groups of the mice (vehicle, 15 mice; 3TC, 10 mice; d4T, 10 mice) were summed, and observed and recorded for up to 10 weeks.

[3] = system: MeCP2-KO mice; assay: Survival of MeCP2-KO mice; type: in vivo; settings: 2 mg/ml in drinking water starting at week 4, vs vehicle
Method: as §1
Mice were maintained in a 12-hour light/dark cycle with free access to food and water. MeCP2-KO mice were divided into three groups of animals, each of which was administered with 3TC (QA-4615, Combi-blocks), d4T (d3580, Tokyo Chemical Industry Co., Ltd.) and vehicle. The mice were orally administered with 3TC (2 mg/ml), d4T (2 mg/ml) and vehicle in drinking water, respectively, starting at week 4. As a control, the vehicle-treated MeCP2-KO mice were used. All mice were observed daily.
Next, the survival rate of the mice in each group (vehicle, 20 mice; 3TC, 13 mice; d4T, 13 mice) was examined.

[4] = system: L1; assay: L1-EGFP vector assay in HEK293; type: cell-based, human; settings: HEK293 with L1-EGFP vector, 20 μM, four days
Method: The reverse transcriptase inhibitors 3TC, d4T and Tenofovir disoproxil Fumarate (TDF), QA-2704, Combi-Blocks) were added to cell lines derived from human fetal kidney cells (HEK293) to a final concentration of 20 μM, and the cells were introduced with a vector (L1-EGFP, Macia et al. Genome Res 27, 335-348 (2017)) in which EGFP protein was expressed in only cells with activated L1. Four days after incubating, immunostaining was performed using antibodies against GFP and Hoechest, which stains nuclei, and images were taken using a fluorescence microscope (Leica AF600) with a 10× objective.

[5] = system: MECP2-deficient neurons; assay: Morphological analysis of iPS cell-derived neurons (Neurolucida tracing, Scholl analysis); type: cell-based, human; settings: 3TC 10 μM in combination with d4T 1 μM, NVP 400 nM
Method: Specifically, differentiated nervous system cells derived from normal human iPS cells and iPS cells obtained from patients suffered from Rett syndrome (hereinafter referred to as MECP2-deficient or MECP2-KO because the MECP2 gene was inactivated) were cultured and differentiated into cortical neurons. […] For neuronal maturation, the cells were kept in the same media but the growth factors were withdrawn.
The differentiated nervous system cells were maintained for 8 weeks after FGF withdraw.
(§2) Next, 3TC and d4T were added to the obtained differentiated neural cell culture. The reverse-transcriptase inhibitors for cultured cells were prepared for as follows: Lamivudine (3TC, Sigma-Aldrich) was prepared in dimethyl sulfoxide (DMSO, Sigma Aldrich) and the preparation was added to media so that the final concentration of 3TC was adjusted into 10 μM. […]
Cultured NPCs were transduced with a lentivirus backbone containing Synapsin 1 (SYN) promoter upstream of an EGFP reporter (Nageshappa et al., Mol Psychiatry 21, 178-188 (2016)). […] 11 (MBF Bioscience, Williston, VT) was used to quantify the morphology of the neurons and then to obtain the sum of length of all neurites and dendrites per traced neuron. […] Neuronal complexity was determined by recording the number of intersections within each ring.

[6] = system: MECP2-deficient neurons; assay: Quantification of co-localized synaptic puncta (SYN1/PSD-95) on iPS cell-derived neurons; type: cell-based, human; settings: vs neurons treated without reverse transcriptase inhibitors, NVP 400 nM
Method: Specifically, differentiated nervous system cells derived from normal human iPS cells and iPS cells obtained from patients suffered from Rett syndrome (hereinafter referred to as MECP2-deficient or MECP2-KO because the MECP2 gene was inactivated) were cultured and differentiated into cortical neurons. For differentiation into neurospheres (neural stem cell clusters), NPCs were dissociated from the plate using StemPro Accutase (Life Technologies), and 3-5 million cells were then cultured in suspension on 6-well plates in a shaker incubator at 95 r.p.m. at 37° C. for 48 hours in neural culture (NG) media (DMEM/F12, 1% Glutamax (Life Technologies), 1% N2 Neuroplex (Gemini Bio-products), 2% Gem21 NeuroPlex (Gemini Bio-products), 1% penicillin-streptomycin) supplemented with bFGF (basic Fibroblast Growth Factor, R&D Systems). […]
Quantification of synaptic spots was performed as follows.
Five- to six-week-old neurons were fixed and stained for the following markers: SYN1, postsynaptic density protein 95 (PSD-95), and dendritic marker (MAP2). A fluorescence microscope (Z1 Axio Observer Apotome Zeiss) was used to image the slides by compiling Z stack images taken from changing focus distances. Co-localized SYN1 (presynaptic) and PSD-95 (postsynaptic) were quantified using the compiled Z stack image. […]

[7] = system: MECP2-deficient spheroids; assay: Multi-electrode array (MEA) neural network activity of spheroids; type: cell-based, human; settings: MEA after 4 weeks, chronic treatment
Method: Next, 3TC and d4T were added to the obtained differentiated neural cell culture. The reverse-transcriptase inhibitors for cultured cells were prepared for as follows: Lamivudine (3TC, Sigma-Aldrich) was prepared in dimethyl sulfoxide (DMSO, Sigma Aldrich) and the preparation was added to media so that the final concentration of 3TC was adjusted into 10 μM. Stavudine (d4T, Sigma-Aldrich) was suspended in water and a final concentration of 1 μM d4T was used in combination with 3TC. […] Control cells (CTRL) contained 10 pjM DMSO as a vehicle control.
The NPCs used to generate spheroids were chronically treated under their respective conditions and plated on multi-electrode array (MEA) planes to measure neural network activity. MEA plates were recorded weekly and analysis of spontaneous neural activity was performed after 4 weeks.
Multi-electrode array (MEA) was performed as follows.
Twelve-well MEA plates (Axion Biosystems) were coated with 100 μg/mL poly-L-ornithine (Sigma-Aldrich) and 5 μg/mL laminin (Life Technologies). Neurospheres generated from NPCs were placed in the center of the MEA wells and the electrodes were fully covered. Neurospheres were plated in NG media supplemented with 1% FBS. […] Media was changed twice a week and recordings were measured one day after the media was changed. […]

[8] = system: MECP2-deficient organoids; assay: Measurement of cortical organoid diameter; type: cell-based, human; settings: after 56 days of differentiation
Method: The cultured iPS cells were dissociated from the plate using a 1:1 Dulbecco's phosphate-buffered saline (DPBS, Fisher Scientific) and StemPro Accutase solution, transferred to 6-well plates, and kept in suspension. Neural induction media consisted of DMEM/F12, 1% Glutamax, 1% N2 Neuroplex, 1% non-essential amino acids (Gibco), 1% penicillin-streptomycin, 1 μM Dorsomorphin (R&D Systems), and 10 μM SB431542 (SB, Stemgent) Neural proliferation media consisted of Neurobasal media (Life Technologies), 2% Gem21 Neuroplex, 1% non-essential amino acids, 1% Glutamax, 20 ng/mL epidermal growth factor (EGF, Peprotech), and 20 ng/mL bFGF. For neuronal maturation, the cells were kept in the same media but the growth factors were withdrawn. Organoid results are combined from four separate batches of differentiation.
as §2
Cortical organoids were imaged on an Evos FL Imagine System (ThermoFisher) at 4× magnification. The images were uploaded to Image J and the diameter of each organoid was determined by the program's length measurement function.

[9] = biological target: HIV reverse transcriptase (Human immunodeficiency virus type 1 group M subtype B, UniProt P04585); settings: cited from earlier work

Sequence of L1 reverse transcriptase (O00370 whole entry, looked up): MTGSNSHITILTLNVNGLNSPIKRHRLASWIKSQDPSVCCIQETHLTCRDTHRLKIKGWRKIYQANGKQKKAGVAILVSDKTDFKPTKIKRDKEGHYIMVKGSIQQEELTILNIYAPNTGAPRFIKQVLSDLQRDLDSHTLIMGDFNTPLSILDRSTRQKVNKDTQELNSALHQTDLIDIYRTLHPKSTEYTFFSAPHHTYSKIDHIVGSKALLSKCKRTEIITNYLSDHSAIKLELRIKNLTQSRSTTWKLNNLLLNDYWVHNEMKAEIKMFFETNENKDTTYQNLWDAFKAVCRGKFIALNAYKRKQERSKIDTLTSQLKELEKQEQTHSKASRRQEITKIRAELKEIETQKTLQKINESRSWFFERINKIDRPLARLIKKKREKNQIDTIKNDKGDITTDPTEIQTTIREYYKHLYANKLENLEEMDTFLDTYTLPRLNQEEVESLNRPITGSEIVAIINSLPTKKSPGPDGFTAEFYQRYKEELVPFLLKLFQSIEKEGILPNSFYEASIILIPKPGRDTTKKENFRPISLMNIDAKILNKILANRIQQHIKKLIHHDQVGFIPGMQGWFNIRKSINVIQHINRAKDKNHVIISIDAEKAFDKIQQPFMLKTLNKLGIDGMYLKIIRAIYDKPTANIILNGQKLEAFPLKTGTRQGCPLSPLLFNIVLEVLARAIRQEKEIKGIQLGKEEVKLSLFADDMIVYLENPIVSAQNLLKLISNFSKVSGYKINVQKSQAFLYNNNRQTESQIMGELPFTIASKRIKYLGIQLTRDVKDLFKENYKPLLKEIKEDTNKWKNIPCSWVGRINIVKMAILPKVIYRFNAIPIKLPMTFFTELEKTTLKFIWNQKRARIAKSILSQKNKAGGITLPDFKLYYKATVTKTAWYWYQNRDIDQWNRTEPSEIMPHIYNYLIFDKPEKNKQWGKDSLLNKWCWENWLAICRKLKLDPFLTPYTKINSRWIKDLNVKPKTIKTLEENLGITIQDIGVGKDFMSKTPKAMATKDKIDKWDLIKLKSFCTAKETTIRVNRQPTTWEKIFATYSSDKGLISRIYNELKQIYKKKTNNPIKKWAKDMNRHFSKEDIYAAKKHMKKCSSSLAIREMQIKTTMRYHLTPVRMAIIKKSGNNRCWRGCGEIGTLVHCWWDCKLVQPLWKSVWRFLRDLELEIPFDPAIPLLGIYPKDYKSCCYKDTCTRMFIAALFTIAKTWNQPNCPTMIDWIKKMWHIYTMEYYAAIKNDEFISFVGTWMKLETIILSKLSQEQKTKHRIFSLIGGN

For `CC(C)Nc1cccnc1N1CCN(C(=O)c2cc3cc(NS(C)(=O)=O)ccc3[nH]2)CC1` [delavirdine], the “inhibitory activity for L1 reverse transcriptase” value [1] is listed as “have an inhibitory activity”.

In the case of `O=C1Nc2ccc(Cl)cc2[C@@](C#CC2CC2)(C(F)(F)F)O1` [efavirenz, Efavirenz], the “inhibitory activity for L1 reverse transcriptase” value [1] is listed as “have an inhibitory activity”.

For `Cc1cn([C@H]2C=C[C@@H](CO)O2)c(=O)[nH]c1=O` [d4T, stavudine], the “Rett symptoms (summed score of six neurological symptoms)” value [2] was “Significant reductions”, the survival rate [3] was “Significant life extensions” and the “percentage of EGFP-positive cells” value [4] was “decrease”.

In the case of `CC(C)OC(=O)OCOP(=O)(CO[C@H](C)Cn1cnc2c(N)ncnc21)OCOC(=O)OC(C)C` [TDF, Tenofovir disoproxil Fumarate], the “percentage of EGFP-positive cells” value [4] is reported as “decrease”.

For `Cc1ccnc2c1NC(=O)c1cccnc1N2C1CC1` [NVP, Nevirapine], the cell body area [5] was “this rescue was not seen”, the “number of branch points” value [5] was “this rescue was not seen” and the “co-localized puncta (synapse formation)” value [6] was “not seen”. The “weighted mean firing rate” value [7] was “significantly decreased”, the cortical organoid diameter [8] was “not seen” and the “inhibitory activity for L1 reverse transcriptase” value [1] was “does not have any inhibitory activity; also recorded: not to have any L1 reverse transcriptase inhibitory activity”. For the same molecule, the “inhibitory activity for HIV reverse transcriptase” value [9] was “has an HIV reverse transcriptase inhibitory activity”.

Source: patent US20240277712A1, “TREATMENT AND PREVENTION OF DEVELOPMENTAL DISORDERS AND MENTAL DISEASES” (KYUSHU UNIVERSITY, NATIONAL UNIVERSITY CORPORATION, priority 2020, published 2024)
